Values quoted from earlier work as cited in PubChem BioAssay AID1259409 (Chemical Carcinogenesis Research Information System (CCRIS), 2018).

Test system: rodent chemically induced tumor inhibition, incidence and multiplicity
Assay: CCRIS tumor inhibitor studies
Details: Promoter: NONE USED; for outcome: Dose [Inhibitor]: 3 MG/KG BW IN 0.1 ML CORN OIL 3/WK FOR DURATION OF EXPERIMENT BEGINNING 15 D POST CARCINOGEN DOSE, Target Tissue: Type of Lesion: MAMMARY GLAND: ADENOCARCINOMA, FIBROADENOMA, Dose [Carcinogen]: 5 OR 10 MG IN 0.5 ML CORN OIL ONCE

## CC(C)C[C@H]1C(=O)N2CCC[C@H]2[C@]2(O)O[C@](NC(=O)[C@@H]3C=C4c5cccc6[nH]c(Br)c(c56)C[C@H]4N(C)C3)(C(C)C)C(=O)N12
Carcinogen: DIMETHYLBENZ[A]ANTHRACENE, 57-97-6, Dose [Inhibitor]: 3 MG/KG BW (0.1 ML) IN CORN OIL 5/WK OR 6/WK FOR 2 WK (11 INJECTIONS) BEGINNING 15 D PRIOR TO CARCINOGEN DOSE AT 35 D OF, Route [Inhibitor]: SUBCUTANEOUS, Species: RAT, Strain/Sex: SPRAGUE-DAWLEY/FEMALE, Target Tissue: Type of Lesion: MAMMARY GLAND: TUMOR, Dose [Carcinogen]: 5 MG/RAT IN CORN OIL ONCE
  tumour outcome (control, treated, inhibition, significance): 13/22 (59%), 11/24 (46%), 22%, not significant
Carcinogen: DIMETHYLBENZ[A]ANTHRACENE, 57-97-6, MAINTAINED ON 0.5% FA, Route [Inhibitor]: SUBCUTANEOUS, Species: RAT, Strain/Sex: SPRAGUE-DAWLEY/FEMALE
  outcome: 34%, 0%, 100%, not calculated (low dose carcinogen); 38%, 18%, 53%, not calculat
Carcinogen: DIMETHYLBENZ[A]ANTHRACENE, 57-97-6, MAINTAINED ON 20% FAT, Route [Inhibitor]: SUBCUTANEOUS, Species: RAT, Strain/Sex: SPRAGUE-DAWLEY/FEMALE
  outcome: 56%, 0%, 100%, not calculated (low dose carcinogen); 58%, 19%, 67%, not calculat
Carcinogen: DIMETHYLBENZ[A]ANTHRACENE, 57-97-6, Dose [Inhibitor]: 400 UG/100 G BW TOGETHER WITH 25 UG TAMOXIFEN/100 G BW 1/D FOR 20 WK BEGINNING 3 D POST CARCINOGEN DOSE (STUDY DURATION:, Route [Inhibitor]: SUBCUTANEOUS, Species: RAT, Strain/Sex: SPRAGUE-DAWLEY/FEMALE, Target Tissue: Type of Lesion: MAMMARY GLAND: CARCINOMA, Dose [Carcinogen]: 5 MG ONCE AT 53 D OF AGE
  tumour outcome (control, treated, inhibition, significance): 85%, 21%, 75%, p<0.001 at 20 wk
Carcinogen: DIMETHYLBENZ[A]ANTHRACENE, 57-97-6, Dose [Inhibitor]: 400 UG/100 G BW TOGETHER WITH 25 UG TAMOXIFEN/100 G BW 1/D FOR 20 WK BEGINNING 3 D POST CARCINOGEN DOSE (STUDY DURATION:, Route [Inhibitor]: SUBCUTANEOUS, Species: RAT, Strain/Sex: SPRAGUE-DAWLEY/FEMALE, Target Tissue: Type of Lesion: MAMMARY GLAND: CARCINOMA, Dose [Carcinogen]: 10 MG ONCE AT 53 D OF AGE
  tumour outcome (control, treated, inhibition, significance): 90%, 10%, 89%, p<0.001 at 12 wks
Carcinogen: DIMETHYLBENZ[A]ANTHRACENE, 57-97-6, Dose [Inhibitor]: 400 UG/100 G BW TOGETHER WITH 25 UG TAMOXIFEN/100 G BW 1/D FOR 26 WK BEGINNING 3 D POST CARCINOGEN DOSE (STUDY DURATION:, Route [Inhibitor]: SUBCUTANEOUS, Species: RAT, Strain/Sex: SPRAGUE-DAWLEY/FEMALE, Target Tissue: Type of Lesion: MAMMARY GLAND: CARCINOMA, Dose [Carcinogen]: 20 MG ONCE AT 53 D OF AGE
  tumour outcome (control, treated, inhibition, significance): 100%, 12%, 88%, p<0.001 at 11 wks
Carcinogen: DIMETHYLBENZ[A]ANTHRACENE, 57-97-6, Dose [Inhibitor]: 400 UG/100 G BW TOGETHER WITH 25 UG TAMOXIFEN/100 G BW 1/D PLUS 68 MG RETINYL ACETATE/KG OF DIET, BEGINNING 3 D POST CAR, Route [Inhibitor]: SUBCUTANEOUS, Species: RAT, Strain/Sex: SPRAGUE-DAWLEY/FEMALE, Target Tissue: Type of Lesion: MAMMARY GLAND: CARCINOMA, Dose [Carcinogen]: 20 MG ONCE AT 53 D OF AGE
  tumour outcome (control, treated, inhibition, significance): 100%, 3%, 97%, p<0.001 at 11 wk
Carcinogen: DIMETHYLBENZ[A]ANTHRACENE, 57-97-6, Dose [Inhibitor]: 400 UG/100 G BW TOGETHER WITH 25 UG TAMOXIFEN/100 G BW 1/D PLUS 204 MG RETINYL ACETATE/KG OF DIET, BEGINNING 3 D POST CA, Route [Inhibitor]: SUBCUTANEOUS, Species: RAT, Strain/Sex: SPRAGUE-DAWLEY/FEMALE, Target Tissue: Type of Lesion: MAMMARY GLAND: CARCINOMA, Dose [Carcinogen]: 10 MG ONCE AT 53 D OF AGE
  tumour outcome (control, treated, inhibition, significance): 90%, 5%, 94%, p<0.001 at 12 wk
Carcinogen: DIMETHYLBENZ[A]ANTHRACENE, 57-97-6, Dose [Inhibitor]: 400 UG/100 G BW TOGETHER WITH 25 UG TAMOXIFEN/100 G BW 1/D PLUS 328 MG RETINYL ACETATE/KG DIET BEGINNING 3 D POST CARCIN, Route [Inhibitor]: SUBCUTANEOUS, Species: RAT, Strain/Sex: SPRAGUE-DAWLEY/FEMALE, Target Tissue: Type of Lesion: MAMMARY GLAND: CARCINOMA, Dose [Carcinogen]: 5 MG ONCE AT 53 D OF AGE
  tumour outcome (control, treated, inhibition, significance): 85%, 5%, 94%, p<0.001 at 20 wk
Carcinogen: ENOVID (NORETHYNODREL WITH MESTRANOL), 8015-30-3, Dose [Inhibitor]: 0.1 MG 1/D FOR 21 MO BEGINNING CONCURRENTLY WITH CARCINOGEN DOSE (STUDY DURATION: 21 MO), Route [Inhibitor]: SUBCUTANEOUS, Species: MOUSE, Strain/Sex: C3H/FEMALE, Target Tissue: Type of Lesion: MAMMARY GLAND: CARCINOMA, Dose [Carcinogen]: 0.1 MG 2/WK FOR 21 MO
  tumour outcome (control, treated, inhibition, significance): 30/100 (30%), 10/100 (10%), 67%, p<0.001
Carcinogen: ESTRONE, 53-16-7, PROGESTERONE, 57-83-0, Carcinogen: ESTRONE, 53-16-7, PROGESTERONE, 57-83-0, Dose [Inhibitor]: 100 UG 1/D FOR 13 WK BEGINNING CONCURRENTLY WITH CARCINOGEN DOSE (STUDY DURATION: NOT STATED, DATA INDICATES 13 WK), Route [Inhibitor]: SUBCUTANEOUS, Species: MOUSE, Strain/Sex: STRAIN-GR/FEMALE, Target Tissue: Type of Lesion: MAMMARY GLAND: PAPILLARY CARCINOMA, Dose [Carcinogen]: 0.5 MG/L FOR 13 WK IN DRINKING WATER BEGINNING AT 15 WK OF AGE, THEN 30 MG PELLET IMPLANT 1/MO BEGINNING AT 15 WK OF AGE
  tumour outcome (control, treated, inhibition, significance): 58/119 (49%), 34/119 (29%), 41%, p<0.005
Carcinogen: ISONIAZID, 54-85-3, Dose [Inhibitor]: 5000 PPM IN DIET STARTING 1 WK PRIOR TO ADMINISTRATION OF CARCINOGEN UNTIL END OF EXPERIMENT (STUDY DURATION: APPROXIMAT, Route [Inhibitor]: ORAL, Species: MOUSE, Strain/Sex: SWISS/MALE, FEMALE, Target Tissue: Type of Lesion: LIVER AND LUNG: COMBINED TUMORS, Dose [Carcinogen]: 1.1 MG/D 5 D/WK UNTIL 25 MO OF AGE
  tumour outcome (control, treated, inhibition, significance): 16/29 (55%), 4/20 (20%), 64%, p<o.o5
Carcinogen: N-METHYL-N'-NITRO-N-NITROSOGUANIDINE, 70-25-7, Dose [Inhibitor]: 0, 0.25 MG/KG AS A SUSPENSION IN OLIVE OIL 1/2 D BEGINNING POST CARCINOGEN DOSE AND CONTINUING FOR DURATION OF STUDY (ST, Route [Inhibitor]: SUBCUTANEOUS, Species: RAT, Strain/Sex: WISTAR/MALE, Target Tissue: Type of Lesion: STOMACH: ADENOCARCINOMA, Dose [Carcinogen]: 50 UG/ML IN DRINKING WATER FOR 25 WK
  tumour outcome (control, treated, inhibition, significance): 12/19 (63%), 12/20 (60%), 5%, not calculated
Carcinogen: N-METHYL-N'-NITRO-N-NITROSOGUANIDINE, 70-25-7, Dose [Inhibitor]: 0, 0.5 MG/KG AS A SUSPENSION IN OLIVE OIL 1/2 D BEGINNING POST CARCINOGEN DOSE AND CONTINUING FOR DURATION OF STUDY (STU, Route [Inhibitor]: SUBCUTANEOUS, Species: RAT, Strain/Sex: WISTAR/MALE, Target Tissue: Type of Lesion: STOMACH: ADENOCARCINOMA, Dose [Carcinogen]: 50 UG/ML IN DRINKING WATER FOR 25 WK
  tumour outcome (control, treated, inhibition, significance): 12/19 (63%), 10/20 (50%), 21%, not calculated
